Laboratory results from PMC9013686, “Inter-individual variation in chlorpyrifos toxicokinetics characterized by physiologically based kinetic (PBK) and Monte Carlo simulation comparing human liver microsome and Supersome™ cytochromes P450 (CYP)-specific kinetic data as model input” (Archives of Toxicology, 2022).
Values joined by “and” are separate entries in the source; they are usually repeats but may differ in a detail not shown here. Equal entries are not always repeated. Where two headings read alike, the source gives them in different places.

Experiments:
[1] = cited from earlier work
[2] = target: CYP2C19 (Homo sapiens, UniProt P33261); assay: Supersome CYP2C19 kinetic incubations; type: in vitro ADME; design: purchased Corning (Amsterdam, The Netherlands); host or cells: baculovirus-transfected insect cells; conditions: for Scaled Vmax(app): CYP2C19 scaled to whole liver by Eq. 3; for Vmax (app) / Km: Supersome CYP2C19; for Km: human, recombinant CYP2C19 Supersomes, pH 7.4, Km(app)
Protocol: (§1) The final incubations were carried out in 50 mM Tris–HCl (pH 7.4) containing 5 mM MgCl2, 1 mM EDTA (as an A-esterase PON1 inhibitor) (Bizoń and Milnerowicz [2018]), 50 µM iso-OMPA (as a B-esterases inhibitor) (Lane et al. [2006]), Supersome™ isoform (at final concentration of 0.005 nmol CYP/ml for 1A2, 0.001 nmol CYP/ml for 2B6, 0.01 nmol CYP/ml for 2C19, and 0.01 nmol CYP/ml for 3A4) and CPF at different final concentrations (0.05, 0.1, 0.25, 0.5, 1, 5 and 10 µM for 1A2, 0.05, 0.1, 0.25, 0.5, 1, 5 10 and 25 µM for 2B6, 1, 2.5, 5, 10, 25 and 50 µM for 2C19, and 0.5, 1, 2.5, 5, 10, 25 and 50 µM for 3A4), which were added from 100 times concentrated stock solutions in ACN. After 1 min preincubation in a 37 °C water bath, 5 µl NADPH (final concentration 1 mM) was added to the incubation system. Control incubations were performed by replacing NADPH with the same amount of Tris–HCl (pH 7.4). The total volume of the incubation mixtures was 200 µl. The incubations lasted for 2 min at 37 °C and were terminated by addition of 50 µl ice cold ACN and subsquently put on ice. After that, samples were centrifuged at 16,000 g (4 ℃) for 5 min and supernatants of samples were separated into two equal portions for Ultra-Performance Liquid Chromatography-Photodiode Array (UPLC-PDA) and Liquid Chromatography Mass Spectrometry (LC–MS/MS) analysis, respectively.
(§2) To normalize for differences in intrinsic CYP activity between Supersome™ and pooled HLMs and enable scaling of the activities to the in vivo situation, CYP-specific ISEF values need to be established. […] The incubation method was similar as used for the CPF kinetic incubation assay described above, except that certain incubation conditions were replaced by the conditions listed in Table 1. The samples obtained were analyzed by UPLC-PDA for acetaminophen, 4-hydroxymephenytoin, and 6β-hydroxytestosterone formation catalyzed by 1A2, 2C19 and 3A4, or LC–MS/MS for (±)-hydroxybupropion formation catalyzed by 2B6.
(§3) As mentioned before, the in vitro apparent kinetic parameters (Vmax and Km) for pathway 1 and pathway 2 in the HLM-based approach, and pathway 3 in both approaches were all obtained directly from reported studies using pooled HLMs (Buratti et al. [2003]; Sams et al. [2004]; Zhao et al. [2019]). Therefore, no extra calculations were required to define these parameters. The kinetic parameters for the ISEF calculation, pathway 1 and 2 in the Supersome™-based approach, and pathway 4 in both approaches (25 individuals) were all obtained by fitting the experimental data to the Michaelis–Menten model using GraphPad (GraphPad Prism 5.0 software, San Diego, CA, USA). It should be noted that the kinetic parameters for pathway 4 used in the two approaches were calculated as mean of the kinetic parameters (Vmax and Km) obtained using 25 individual HP samples (with correction for total protein concentration of each plasma sample).
(§4) The in vivo Kmi values were assumed to be equal to the apparent Kmi(app) values (µM) obtained in the in vitro incubations, while the in vivo Vmaxi for each CYP isoform was derived from their corresponding apparent CYP isoform Vmaxi(app) (pmol/min/pmolCYP) using Eq. 3:3 Vmaxi=Vmaxiapp×CYPiabundance×ISEF×60×MPL×1000×VL/1,000,000,

[3] = test system: CYP1A2, CYP2B6, CYP2C19 and CYP3A4; assay: Summed Supersome CYP kinetics scaled to whole liver; type: in vitro ADME, human
Protocol: as §4
To gain a better insight in the contribution of each CYP to the metabolism of CPF in vivo at different concentrations of CPF, the apparent Supersome™ kinetic data were scaled toward the whole liver according to Eq. 3.
To evaluate the performance of the Supersomes™ together with the ISEF to predict the bioactivation of CPF, the sum of the scaled CE of the four individual Supersomes™ was compared to the CE obtained for the pooled HLMs (for both non-biphasic and biphasic scenarios).

[4] = target: T1, CYP2B6 (Homo sapiens, UniProt P20813); assay: Supersome CYP2B6 kinetic incubations; type: in vitro ADME; design: purchased Corning (Amsterdam, The Netherlands); host or cells: baculovirus-transfected insect cells; conditions: for Scaled Vmax(app): CYP2B6 scaled to whole liver by Eq. 3; for Vmax (app) / Km: Supersome CYP2B6; for Km: human, recombinant CYP2B6 Supersomes, pH 7.4, Km(app)
T1 sequence (P20813 1-491): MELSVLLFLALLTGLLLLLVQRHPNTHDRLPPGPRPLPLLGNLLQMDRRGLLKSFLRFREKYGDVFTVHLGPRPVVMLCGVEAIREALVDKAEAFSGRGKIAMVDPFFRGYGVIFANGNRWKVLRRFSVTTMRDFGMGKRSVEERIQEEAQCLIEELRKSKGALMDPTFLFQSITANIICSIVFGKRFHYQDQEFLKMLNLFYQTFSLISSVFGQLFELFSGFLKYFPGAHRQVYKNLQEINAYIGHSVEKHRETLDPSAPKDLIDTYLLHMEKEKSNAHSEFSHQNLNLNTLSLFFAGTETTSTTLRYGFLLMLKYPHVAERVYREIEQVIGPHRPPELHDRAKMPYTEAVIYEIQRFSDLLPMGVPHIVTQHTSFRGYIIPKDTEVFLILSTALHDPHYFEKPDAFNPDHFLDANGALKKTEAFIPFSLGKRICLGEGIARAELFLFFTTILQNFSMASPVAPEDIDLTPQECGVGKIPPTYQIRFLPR
Protocol: as §1, §2, §3, §4

[5] = Pathway 1 (bioactivation of CPF to CPO)
[6] = Pathway 2 (detoxification of CPF to TCPy)

CYP2C19, sequence (P33261 whole entry, canonical isoform): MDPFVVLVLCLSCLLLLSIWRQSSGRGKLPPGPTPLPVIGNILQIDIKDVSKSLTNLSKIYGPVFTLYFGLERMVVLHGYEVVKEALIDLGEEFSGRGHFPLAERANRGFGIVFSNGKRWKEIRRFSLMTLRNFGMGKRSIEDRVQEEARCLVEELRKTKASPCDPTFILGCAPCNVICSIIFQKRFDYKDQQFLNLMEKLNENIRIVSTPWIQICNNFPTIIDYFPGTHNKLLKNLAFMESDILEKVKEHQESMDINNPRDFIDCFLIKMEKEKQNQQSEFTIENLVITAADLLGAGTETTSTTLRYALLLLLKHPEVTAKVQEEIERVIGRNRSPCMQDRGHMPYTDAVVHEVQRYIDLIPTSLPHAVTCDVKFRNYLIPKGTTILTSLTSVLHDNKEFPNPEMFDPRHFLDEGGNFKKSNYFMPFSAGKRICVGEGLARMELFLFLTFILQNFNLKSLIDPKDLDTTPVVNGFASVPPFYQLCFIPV

CCOP(=S)(OCC)Oc1nc(Cl)c(Cl)cc1Cl [CPF, Chlorpyrifos]
ka (absorption rate constant) ([1]; PBK model input, mean, ref Bouchard et al. ([2005])): 0.46 h⁻¹
fa (fractional absorption), mean ([1]; mean of the reported fa values, ref Timchalk et al. ([2002]), Nolan et al. ([1984])): 0.462 and 0.46
fa (fractional absorption) ([1]; ref Nolan et al. ([1984])): 0.7
fa (fractional absorption) ([1]; ref Timchalk et al. ([2002])): 0.224
Scaled Vmax(app) ([2]; Pathway 1 (CPF to CPO)): 10.81 µmol/h
Vmax (app) ([2]; Pathway 1 (CPF to CPO)): 2.74 pmol/min/pmolCYP
Scaled Vmax(app) ([2]; Pathway 2 (CPF to TCPy)): 69.06 µmol/h
Vmax (app) ([2]; Pathway 2 (CPF to TCPy)): 17.51 pmol/min/pmolCYP
Km [2, 5]: 1.89 µM
Km [2, 6]: 1.37 µM
summed scaled CE of Supersomes ([3]; bioactivation of CPF, sum of four individual Supersomes): 1578 L/h
overall extrapolated Vmax from Supersome data versus HLM-derived Vmax ([3]; high affinity component): 1.9 fold
overall extrapolated Vmax from Supersome data versus HLM-derived Vmax ([3]; low affinity component): 0.9 fold
Scaled Vmax(app) ([4]; Pathway 1 (CPF to CPO)): 203.94 µmol/h
Vmax (app) ([4]; Pathway 1 (CPF to CPO)): 7.76 pmol/min/pmolCYP
Scaled Vmax(app) ([4]; Pathway 2 (CPF to TCPy)): 144.28 µmol/h
Vmax (app) ([4]; Pathway 2 (CPF to TCPy)): 5.49 pmol/min/pmolCYP
Km [4, 5]: 0.14 µM
Km [4, 6]: 1.28 µM
